Measurements as given in the supplement of paper PMC10883282.
± gives the standard deviation of the averaged measurements.

Legend:
Test in all cases: relative viability vs DMSO control (72 h) (fraction); higher = more viable cells
KHOS-NP = tested on: KHOS-NP
Procedure, shortened: (§1)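 Sarcoma cell lines were plated in 384 wells to reach 80–90% confluence, treated after 24 h with 2.5 µl of serially diluted compound and held 72 h at 37 °C, 5% CO2. Relative viability was taken as percent growth from ATPLite readings, averaged over up to triplicate wells. The values were rescaled so that 1 marks full and 0 marks none.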

RD = tested on: RD
Procedure, shortened: as §1

SK-ES-1 = tested on: SK-ES-1
Procedure, shortened: as §1

MES-SA = tested on: MES-SA
Procedure, shortened: as §1

A204 = tested on: A204
Procedure, shortened: as §1

G401 = tested on: G401
Procedure, shortened: as §1

HS729 = tested on: HS729
Procedure, shortened: as §1

VA-ES-BJ = tested on: VA-ES-BJ
Procedure, shortened: as §1

SW684 = tested on: SW684
Procedure, shortened: as §1

SW872 = tested on: SW872
Procedure, shortened: as §1

SK-LMS-1 = tested on: SK-LMS-1
Procedure, shortened: as §1

SYO-1 = tested on: SYO-1
Procedure, shortened: as §1

Structure (SMILES): Cc1[nH]c(/C=C2\C(=O)Nc3ccc(F)cc32)c(C)c1C(=O)NCCN1CCCC1 [Toceranib]
- relative viability (KHOS-NP; 68 pM): 1.09 ± 0.013
- relative viability (KHOS-NP; 0.000203 µM): 1.106 ± 0.0016
- relative viability (KHOS-NP; 0.0006 µM): 1.0967 ± 0.00085
- relative viability (KHOS-NP; 0.0018 µM): 1.08 ± 0.028
- relative viability (KHOS-NP; 0.0055 µM): 1.07 ± 0.034
- relative viability (KHOS-NP; 0.0165 µM): 1.07 ± 0.035
- relative viability (KHOS-NP; 0.0494 µM): 1.03 ± 0.048
- relative viability (KHOS-NP; 0.1481 µM): 1.02 ± 0.053
- relative viability (KHOS-NP; 0.444 µM): 1.02 ± 0.042
- relative viability (KHOS-NP; 1.333 µM): 1 ± 0.018
- relative viability (KHOS-NP; 4 µM): 0.775 ± 0.051
- relative viability (RD; 68 pM): 1.06 ± 0.052
- relative viability (RD; 0.000203 µM): 1.09 ± 0.023
- relative viability (RD; 0.0006 µM): 1.14 ± 0.025
- relative viability (RD; 0.0018 µM): 1.07 ± 0.064
- relative viability (RD; 0.0055 µM): 1.08 ± 0.01
- relative viability (RD; 0.0165 µM): 1.08 ± 0.023
- relative viability (RD; 0.0494 µM): 1.11 ± 0.025
- relative viability (RD; 0.1481 µM): 1.08 ± 0.073
- relative viability (RD; 0.444 µM): 1.08 ± 0.06
- relative viability (RD; 1.333 µM): 1.05 ± 0.026
- relative viability (RD; 4 µM): 0.786 ± 0.031
- relative viability (SK-ES-1; 68 pM): 1.01 ± 0.024
- relative viability (SK-ES-1; 0.000203 µM): 1.02 ± 0.033
- relative viability (SK-ES-1; 0.0006 µM): 1 ± 0.022
- relative viability (SK-ES-1; 0.0018 µM): 0.995 ± 0.071
- relative viability (SK-ES-1; 0.0055 µM): 0.996 ± 0.052
- relative viability (SK-ES-1; 0.0165 µM): 0.98 ± 0.05
- relative viability (SK-ES-1; 0.0494 µM): 0.972 ± 0.026
- relative viability (SK-ES-1; 0.1481 µM): 0.913 ± 0.065
- relative viability (SK-ES-1; 0.444 µM): 0.802 ± 0.069
- relative viability (SK-ES-1; 1.333 µM): 0.43 ± 0.016
- relative viability (SK-ES-1; 4 µM): 0.165 ± 0.017
- relative viability (MES-SA; 68 pM): 0.932 ± 0.019
- relative viability (MES-SA; 0.000203 µM): 0.9214 ± 0.0054
- relative viability (MES-SA; 0.0006 µM): 0.926 ± 0.021
- relative viability (MES-SA; 0.0018 µM): 0.899 ± 0.018
- relative viability (MES-SA; 0.0055 µM): 0.915 ± 0.028
- relative viability (MES-SA; 0.0165 µM): 0.919 ± 0.044
- relative viability (MES-SA; 0.0494 µM): 0.9 ± 0.032
- relative viability (MES-SA; 0.1481 µM): 0.919 ± 0.021
- relative viability (MES-SA; 0.444 µM): 0.884 ± 0.05
- relative viability (MES-SA; 1.333 µM): 0.751 ± 0.062
- relative viability (MES-SA; 4 µM): 0.44 ± 0.034
- relative viability (A204; 68 pM): 1.05 ± 0.049
- relative viability (A204; 0.000203 µM): 1.01 ± 0.034
- relative viability (A204; 0.0006 µM): 1.06 ± 0.054
- relative viability (A204; 0.0018 µM): 1.08 ± 0.043
- relative viability (A204; 0.0055 µM): 1.03 ± 0.028
- relative viability (A204; 0.0165 µM): 0.938 ± 0.063
- relative viability (A204; 0.0494 µM): 0.633 ± 0.033
- relative viability (A204; 0.1481 µM): 0.442 ± 0.029
- relative viability (A204; 0.444 µM): 0.394 ± 0.015
- relative viability (A204; 1.333 µM): 0.355 ± 0.03
- relative viability (A204; 4 µM): 0.327 ± 0.011
- relative viability (G401; 68 pM): 0.991 ± 0.022
- relative viability (G401; 0.000203 µM): 0.978 ± 0.056
- relative viability (G401; 0.0006 µM): 0.979 ± 0.042
- relative viability (G401; 0.0018 µM): 0.983 ± 0.033
- relative viability (G401; 0.0055 µM): 0.974 ± 0.038
- relative viability (G401; 0.0165 µM): 0.918 ± 0.024
- relative viability (G401; 0.0494 µM): 0.941 ± 0.02
- relative viability (G401; 0.1481 µM): 0.924 ± 0.013
- relative viability (G401; 0.444 µM): 0.938 ± 0.045
- relative viability (G401; 1.333 µM): 0.912 ± 0.017
- relative viability (G401; 4 µM): 0.787 ± 0.03
- relative viability (HS729; 68 pM): 0.982 ± 0.016
- relative viability (HS729; 0.000203 µM): 0.926 ± 0.062
- relative viability (HS729; 0.0006 µM): 0.901 ± 0.026
- relative viability (HS729; 0.0018 µM): 0.859 ± 0.013
- relative viability (HS729; 0.0055 µM): 0.84 ± 0.053
- relative viability (HS729; 0.0165 µM): 0.778 ± 0.034
- relative viability (HS729; 0.0494 µM): 0.765 ± 0.013
- relative viability (HS729; 0.1481 µM): 0.729 ± 0.028
- relative viability (HS729; 0.444 µM): 0.715 ± 0.019
- relative viability (HS729; 1.333 µM): 0.59 ± 0.017
- relative viability (HS729; 4 µM): 0.414 ± 0.026
- relative viability (VA-ES-BJ; 68 pM): 1.07 ± 0.034
- relative viability (VA-ES-BJ; 0.000203 µM): 1.05 ± 0.029
- relative viability (VA-ES-BJ; 0.0006 µM): 1.04 ± 0.036
- relative viability (VA-ES-BJ; 0.0018 µM): 1.03 ± 0.049
- relative viability (VA-ES-BJ; 0.0055 µM): 1.04 ± 0.029
- relative viability (VA-ES-BJ; 0.0165 µM): 1.01 ± 0.022
- relative viability (VA-ES-BJ; 0.0494 µM): 0.987 ± 0.04
- relative viability (VA-ES-BJ; 0.1481 µM): 1 ± 0.056
- relative viability (VA-ES-BJ; 0.444 µM): 0.961 ± 0.041
- relative viability (VA-ES-BJ; 1.333 µM): 0.859 ± 0.051
- relative viability (VA-ES-BJ; 4 µM): 0.675 ± 0.03
- relative viability (SW684; 68 pM): 1.1 ± 0.057
- relative viability (SW684; 0.000203 µM): 1.178 ± 0.011
- relative viability (SW684; 0.0006 µM): 1.13 ± 0.072
- relative viability (SW684; 0.0018 µM): 1.13 ± 0.037
- relative viability (SW684; 0.0055 µM): 1.14 ± 0.038
- relative viability (SW684; 0.0165 µM): 1.1 ± 0.038
- relative viability (SW684; 0.0494 µM): 1.15 ± 0.065
- relative viability (SW684; 0.1481 µM): 1.14 ± 0.046
- relative viability (SW684; 0.444 µM): 1.12 ± 0.038
- relative viability (SW684; 1.333 µM): 0.956 ± 0.039
- relative viability (SW684; 4 µM): 0.755 ± 0.053
- relative viability (SW872; 68 pM): 1.05 ± 0.03
- relative viability (SW872; 0.000203 µM): 1.05 ± 0.042
- relative viability (SW872; 0.0006 µM): 1.03 ± 0.064
- relative viability (SW872; 0.0018 µM): 0.982 ± 0.063
- relative viability (SW872; 0.0055 µM): 0.954 ± 0.025
- relative viability (SW872; 0.0165 µM): 0.971 ± 0.029
- relative viability (SW872; 0.0494 µM): 0.944 ± 0.047
- relative viability (SW872; 0.1481 µM): 0.939 ± 0.033
- relative viability (SW872; 0.444 µM): 0.886 ± 0.074
- relative viability (SW872; 1.333 µM): 0.65 ± 0.044
- relative viability (SW872; 4 µM): 0.521 ± 0.043
- relative viability (SK-LMS-1; 68 pM): 0.939 ± 0.038
- relative viability (SK-LMS-1; 0.000203 µM): 0.944 ± 0.052
- relative viability (SK-LMS-1; 0.0006 µM): 0.972 ± 0.045
- relative viability (SK-LMS-1; 0.0018 µM): 0.968 ± 0.047
- relative viability (SK-LMS-1; 0.0055 µM): 0.941 ± 0.042
- relative viability (SK-LMS-1; 0.0165 µM): 0.946 ± 0.037
- relative viability (SK-LMS-1; 0.0494 µM): 0.906 ± 0.02
- relative viability (SK-LMS-1; 0.1481 µM): 0.921 ± 0.043
- relative viability (SK-LMS-1; 0.444 µM): 0.893 ± 0.025
- relative viability (SK-LMS-1; 1.333 µM): 0.81 ± 0.012
- relative viability (SK-LMS-1; 4 µM): 0.717 ± 0.028
- relative viability (SYO-1; 68 pM): 0.931 ± 0.029
- relative viability (SYO-1; 0.000203 µM): 0.887 ± 0.034
- relative viability (SYO-1; 0.0006 µM): 0.835 ± 0.033
- relative viability (SYO-1; 0.0018 µM): 0.806 ± 0.054
- relative viability (SYO-1; 0.0055 µM): 0.721 ± 0.047
- relative viability (SYO-1; 0.0165 µM): 0.64 ± 0.037
- relative viability (SYO-1; 0.0494 µM): 0.587 ± 0.034
- relative viability (SYO-1; 0.1481 µM): 0.603 ± 0.065
- relative viability (SYO-1; 0.444 µM): 0.576 ± 0.03
- relative viability (SYO-1; 1.333 µM): 0.482 ± 0.024
- relative viability (SYO-1; 4 µM): 0.357 ± 0.027
